According to patent publication US8192962B2, “Processes for detecting toxic substances” (Daikin Industries, Ltd., priority 2001, dated 2012):
Where “and” joins values, the source holds several entries; their conditions need not be identical. Equal values may be shown once.

System: DNA repair protein genes
Assay: DNA chip mRNA expression in yeast, DNA repair protein genes (Table 3)
Type: cell-based, Saccharomyces cerevisiae S288C
Conditions: incubated two hours, concentrations as in the 1st table
Outline: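 First, S288C yeast grown in YPD at 25° C. are dosed in log phase with one toxicant (growth-inhibiting, not lethal) for 2 h. Next, total RNA is extracted and poly(A) mRNA isolated and reverse-transcribed with Cy3/Cy5-dUTP. Finally, whole-genome chip fluorescence is read relative to unexposed cells.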

Question: Which results are given for `Oc1cc(Cl)c(Cl)cc1Cl` [(6), 2,4,5-trichlorophenol]?
Answer: The level of expressed mRNA in the presence of chemical substance/The level of expressed mRNA in the absence of chemical substance (yeast gene YAL015C): 0.7; The level of expressed mRNA in the presence of chemical substance/The level of expressed mRNA in the absence of chemical substance (yeast gene YBL019W): 1.0; The level of expressed mRNA in the presence of chemical substance/The level of expressed mRNA in the absence of chemical substance (yeast gene YBR073W): 0.7; The level of expressed mRNA in the presence of chemical substance/The level of expressed mRNA in the absence of chemical substance (yeast gene YCR014C): 1.1; The level of expressed mRNA in the presence of chemical substance/The level of expressed mRNA in the absence of chemical substance (yeast gene YDL017W): 1.1; The level of expressed mRNA in the presence of chemical substance/The level of expressed mRNA in the absence of chemical substance (yeast gene YDL059C): 1.2; The level of expressed mRNA in the presence of chemical substance/The level of expressed mRNA in the absence of chemical substance (yeast gene YDL200C): 0.6; The level of expressed mRNA in the presence of chemical substance/The level of expressed mRNA in the absence of chemical substance (yeast gene YDR054C): 1.9; The level of expressed mRNA in the presence of chemical substance/The level of expressed mRNA in the absence of chemical substance (yeast gene YDR369C): 0.6; The level of expressed mRNA in the presence of chemical substance/The level of expressed mRNA in the absence of chemical substance (yeast gene YEL019C): 1.5; The level of expressed mRNA in the presence of chemical substance/The level of expressed mRNA in the absence of chemical substance (yeast gene YEL037C): 0.6; The level of expressed mRNA in the presence of chemical substance/The level of expressed mRNA in the absence of chemical substance (yeast gene YER162C): 0.7; The level of expressed mRNA in the presence of chemical substance/The level of expressed mRNA in the absence of chemical substance (yeast gene YFL014W): 9.3; The level of expressed mRNA in the presence of chemical substance/The level of expressed mRNA in the absence of chemical substance (yeast gene YGL058W): 1.0 and 1.5; The level of expressed mRNA in the presence of chemical substance/The level of expressed mRNA in the absence of chemical substance (yeast gene YGL091C): 1.6; The level of expressed mRNA in the presence of chemical substance/The level of expressed mRNA in the absence of chemical substance (yeast gene YGL127C): 0.6; The level of expressed mRNA in the presence of chemical substance/The level of expressed mRNA in the absence of chemical substance (yeast gene YGL163C): 0.9; The level of expressed mRNA in the presence of chemical substance/The level of expressed mRNA in the absence of chemical substance (yeast gene YGL249W): 2.5; The level of expressed mRNA in the presence of chemical substance/The level of expressed mRNA in the absence of chemical substance (yeast gene YGR180C): 0.6 and 1.0; The level of expressed mRNA in the presence of chemical substance/The level of expressed mRNA in the absence of chemical substance (yeast gene YGR231C): 1.9; The level of expressed mRNA in the presence of chemical substance/The level of expressed mRNA in the absence of chemical substance (yeast gene YGR258C): 2.2; The level of expressed mRNA in the presence of chemical substance/The level of expressed mRNA in the absence of chemical substance (yeast gene YHR164C): 1.4; The level of expressed mRNA in the presence of chemical substance/The level of expressed mRNA in the absence of chemical substance (yeast gene YIL036W): 1.8; The level of expressed mRNA in the presence of chemical substance/The level of expressed mRNA in the absence of chemical substance (yeast gene YIL072W): 1.2; The level of expressed mRNA in the presence of chemical substance/The level of expressed mRNA in the absence of chemical substance (yeast gene YIL143C): 1.4; The level of expressed mRNA in the presence of chemical substance/The level of expressed mRNA in the absence of chemical substance (yeast gene YIL153W): 0.9; The level of expressed mRNA in the presence of chemical substance/The level of expressed mRNA in the absence of chemical substance (yeast gene YIR002C): 2.2; The level of expressed mRNA in the presence of chemical substance/The level of expressed mRNA in the absence of chemical substance (yeast gene YJL026W): 1.0; The level of expressed mRNA in the presence of chemical substance/The level of expressed mRNA in the absence of chemical substance (yeast gene YJR046W): 2.0; The level of expressed mRNA in the presence of chemical substance/The level of expressed mRNA in the absence of chemical substance (yeast gene YJR052W): 1.4; The level of expressed mRNA in the presence of chemical substance/The level of expressed mRNA in the absence of chemical substance (yeast gene YKL145W): 2.1; The level of expressed mRNA in the presence of chemical substance/The level of expressed mRNA in the absence of chemical substance (yeast gene YLR103C): 1.1; The level of expressed mRNA in the presence of chemical substance/The level of expressed mRNA in the absence of chemical substance (yeast gene YLR233C): 0.8; The level of expressed mRNA in the presence of chemical substance/The level of expressed mRNA in the absence of chemical substance (yeast gene YLR288C): 1.2; The level of expressed mRNA in the presence of chemical substance/The level of expressed mRNA in the absence of chemical substance (yeast gene YML032C): 0.9; The level of expressed mRNA in the presence of chemical substance/The level of expressed mRNA in the absence of chemical substance (yeast gene YMR035W): 1.5; The level of expressed mRNA in the presence of chemical substance/The level of expressed mRNA in the absence of chemical substance (yeast gene YMR072W): 1.6 and 2.4; The level of expressed mRNA in the presence of chemical substance/The level of expressed mRNA in the absence of chemical substance (yeast gene YMR096W): 2.2; The level of expressed mRNA in the presence of chemical substance/The level of expressed mRNA in the absence of chemical substance (yeast gene YMR284W): 0.8 and 1.2; The level of expressed mRNA in the presence of chemical substance/The level of expressed mRNA in the absence of chemical substance (yeast gene YNL213C): 1.7; The level of expressed mRNA in the presence of chemical substance/The level of expressed mRNA in the absence of chemical substance (yeast gene YNL250W): 0.8; The level of expressed mRNA in the presence of chemical substance/The level of expressed mRNA in the absence of chemical substance (yeast gene YNL261W): 1.3; The level of expressed mRNA in the presence of chemical substance/The level of expressed mRNA in the absence of chemical substance (yeast gene YNL312W): 1.7; The level of expressed mRNA in the presence of chemical substance/The level of expressed mRNA in the absence of chemical substance (yeast gene YOL043C): 0.8; The level of expressed mRNA in the presence of chemical substance/The level of expressed mRNA in the absence of chemical substance (yeast gene YOR005C): 1.3; The level of expressed mRNA in the presence of chemical substance/The level of expressed mRNA in the absence of chemical substance (yeast gene YOR386W): 3.3; The level of expressed mRNA in the presence of chemical substance/The level of expressed mRNA in the absence of chemical substance (yeast gene YPL022W): 5.2; The level of expressed mRNA in the presence of chemical substance/The level of expressed mRNA in the absence of chemical substance (yeast gene YPL164C): 1.7; The level of expressed mRNA in the presence of chemical substance/The level of expressed mRNA in the absence of chemical substance (yeast gene YPL194W): 1.1; The level of expressed mRNA in the presence of chemical substance/The level of expressed mRNA in the absence of chemical substance (yeast gene YPR025C): 0.9
